Our source for the IC50 and Ki values is ChEMBL document CHEMBL1833845, “Potent inhibition of bacterial neuraminidase activity by pterocarpans isolated from the roots of Lespedeza bicolor” (Bioorg Med Chem Lett, 2011).

SMILES strings stand for the structures.

For test [1], the target named is T1, Sialidase (Clostridium perfringens, UniProt P10481).
T1 sequence (P10481 whole entry): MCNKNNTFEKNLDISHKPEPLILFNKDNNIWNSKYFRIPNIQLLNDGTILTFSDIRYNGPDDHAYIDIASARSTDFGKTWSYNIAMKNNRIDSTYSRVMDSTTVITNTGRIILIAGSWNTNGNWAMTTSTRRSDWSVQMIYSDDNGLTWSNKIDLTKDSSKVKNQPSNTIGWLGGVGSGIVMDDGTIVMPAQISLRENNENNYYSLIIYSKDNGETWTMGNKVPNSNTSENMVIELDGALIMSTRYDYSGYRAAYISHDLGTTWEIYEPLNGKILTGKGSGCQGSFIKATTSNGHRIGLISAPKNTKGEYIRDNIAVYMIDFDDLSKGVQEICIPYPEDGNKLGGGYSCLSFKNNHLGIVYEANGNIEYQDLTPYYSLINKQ

In test [2] the target is T1, Sialidase. This is another data set of the same source.

At Sialidase [1], `CC(C)=CCc1cc2c(cc1O)OC[C@H]1c3ccc(O)c(CC=C(C)C)c3O[C@@H]21` [ERYBRAEDIN C] returned an IC50 of 3.35 µM. At Sialidase [2], this compound displayed a Ki of 2.73 µM.

As to `O=c1c(O)c(-c2ccc(O)c(O)c2)oc2cc(O)cc(O)c12` [QUERCETIN], the IC50 against Sialidase [1] is 10.1 µM.

Regarding `COc1cc(O)c(C/C=C(\C)CCC=C(C)C)c2c1[C@@H]1Oc3cc(O)ccc3[C@@H]1CO2` [BICOLOSIN C], the IC50 at Sialidase [1] was 0.17 µM. Also, affinity at Sialidase [2] was put at a Ki of 0.16 µM.

`CC(C)=CCc1cc2c(cc1O)OCC1c3cc(C)c(O)c(CC=C(C)C)c3OC21` (stereo not drawn) [LESPEBUERGINE G4] showed an IC50 against Sialidase [1] of 1.84 µM. The same compound returned a Ki at Sialidase [2] of 1.35 µM.

As to `CC(C)=CCC/C(C)=C/Cc1cc2c(cc1O)OC[C@H]1c3cc(C)c(O)c(CC=C(C)C)c3O[C@@H]21` [BICOLOSIN B], the IC50 against Sialidase [1] stood at 1.06 µM. On Sialidase [2], this compound registered a Ki of 1.2 µM.

Regarding `COc1c(CC=C(C)C)c(O)cc2c1[C@@H]1Oc3c(cc(C)c(O)c3CC=C(C)C)[C@@H]1CO2` [BICOLOSIN A], on Sialidase [1], the IC50 was 0.32 µM. The same compound gave a Ki on Sialidase [2] of 0.16 µM.

In the case of `COc1c(CC=C(C)C)c(O)cc2c1[C@@H]1Oc3c(ccc(O)c3CC=C(C)C)[C@@H]1CO2`, on Sialidase [1], the midpoint of inhibition, the IC50, lay at 0.09 µM. The Ki on Sialidase [2] was found to be 0.11 µM.

As usually defined, the IC50 is the concentration needed to halve the response being measured. A lower IC50 goes with inhibition by little substance. Usually Ki stands for the equilibrium dissociation constant of an inhibitor or competing ligand from its target. Read a high Ki as lower affinity.
